Measurements as given in patent publication US20260166082A1, “METHODS OF TREATMENT WITH T CELL THERAPY AND IMMUNOMODULATORY AGENT MAINTENANCE THERAPY” (Celgene Corporation, priority 2022, published 2026).

Legend:
[1] = tested on: patients with multiple myeloma following ASCT; conditions: maintenance with lenalidomide following ASCT; 22.1 months follow up; cited from earlier work
[2] = tested on: minimal residual disease; experiment: Example 1: MRD negativity by next-generation sequencing and EuroFlow; assay type: in vivo, human; conditions: subjects on lenalidomide maintenance after anti-BCMA CAR-T cells, subsequent analysis
Method: Exploratory endpoints, which included assessment of biomarkers (serum level of soluble BCMA (sBCMA) and inflammatory cytokines) by Luminex assay and minimal residual disease negativity (MRD−) by using aggregation of next-generation sequencing and 8-color flow cytometry (EuroFlow; sensitivity <10^−5 nucleated cells) data with interpolation to reduce missing/indeterminate data points. sBCMA levels were evaluated at leukapheresis; baseline; days 1, 4, and 8; and until disease progression. Plasma levels of immune-related inflammatory cytokines (interferon-γ (IFNγ), interleukin-6 (IL-6), interleukin-8 (IL-8) and interleukin-10 (IL-10)) were evaluated at leukapheresis; baseline; days 1-8, 10, 12, 15 18 and 22; and months 2 and 4. Efficacy and safety were analyzed in all subjects who received anti-BCMA CAR-T cells. PK, sBCMA, and MRD-were analyzed in evaluable subjects.

Nc1cccc2c1CN(C1CCC(=O)NC1=O)C2=O (centres unmarked) [lenalidomide, 3-(4-amino-1-oxo-1,3-dihydro-2H-isoindol-2-yl) piperidine-2,6-dione]
complete response rate [1]: 60.9%
patients achieving minimal residual disease negativity [1]: 20.4
MRD-negativity maintained at 36 months ([2]; 2/3 evaluable): 66.7%
MRD-negativity maintained at 12 months ([2]; 4/6 evaluable): 66.7%
MRD-negativity maintained at 24 months ([2]; 4/6 evaluable): 66.7%
